Measurements: US12239623B2, “Sleep-improving compositions and methods of use” (priority 2023, dated 2025)

Tests used:
Format in all cases: in vivo
[1] = test system: male BALB/c mice; test: Sleep duration and sleep latency in mice (Example 1); details: pentobarbital 42 mg/kg, combos together with caffeine
Protocol: (§1) Five male BALB/c mice per treatment arm (age: 8 weeks; weight: […]) were housed in a controlled environment with a 12:12-h light-dark cycle at 22° C. and were provided with mice chow and water ad libitum. The mice were fasted for 24 hours prior to the study, which was conducted between 1 pm and 5 pm and under the National Institutes of Health's Guidelines for the Care and Use of Laboratory Animals and approved by the Ethics Committee of the Medipol University. The mice were divided into eight groups and anesthetized with urethane (1.25 g/kg, i.p.; Sigma U2500) and carefully placed in a stereotaxic frame. Rectal temperatures were maintained between 36.5° C. and 37.0° C. using a feedback-controlled-heating system (507221F, Harvard Apparatus, ABD). Lidocaine (2.0%) was applied on the incision area to prevent any occurrence of pain. A midline incision was made on the skin along the sagittal suture of the skull. A part of the cranium overlying the left parietal cortex was removed using a dental drill. […]
(§2) After the administration, the mice were placed in individual cages and subjected to measurements of sleep latency and duration. Brain electrical activity were monitored and recorded for a total of 2 hours. […]

[2] = test system: male BALB/c mice; test: EEG amplitude and frequency in caffeine-treated mice (Example 1); details: caffeine 7.5 mg/kg, compositions in combination with caffeine
Protocol: as §1, §2

[3] = test system: 5-HT1A; test: Western blot of brain 5-HT1A in caffeine-treated mice (Example 1); details: FIG. 1G, male BALB/c mice brain, reduced from 100%, caffeine 7.5 mg/kg i.p., combos given together with caffeine, after two hours
Protocol: as §1, with “drill. Ag—AgCl ball electrodes were placed on the left somatomotor cortex (1 mm anterior/1.5 mm lateral from bregma; 3 mm posterior/1.5 mm lateral from bregma) and the reference electrode was attached to the left foot for an ECoG recording. Group 1 were treated with saline. To induce sleep disturbance, 7.5 mg/kg caffeine was injected intraperitoneally at minute 15 of recordings to groups 2-8.” for “drill.”

[4] = test system: GluN2A; test: Western blot of brain GluN2A in caffeine-treated mice (Example 1); details: FIG. 1F, male BALB/c mice brain, reduced from 100%, caffeine 7.5 mg/kg i.p., combos given together with caffeine, after two hours
Protocol: as §1, with “drill. Ag—AgCl ball electrodes were placed on the left somatomotor cortex (1 mm anterior/1.5 mm lateral from bregma; 3 mm posterior/1.5 mm lateral from bregma) and the reference electrode was attached to the left foot for an ECoG recording. Group 1 were treated with saline. To induce sleep disturbance, 7.5 mg/kg caffeine was injected intraperitoneally at minute 15 of recordings to groups 2-8.” for “drill.”

[5] = test system: GluA1; test: Western blot of brain GluA1 in caffeine-treated mice (Example 1); details: FIG. 1D, male BALB/c mice brain, reduced from 100%, caffeine 7.5 mg/kg i.p., combos given together with caffeine, after two hours
Protocol: as §1, with “drill. Ag—AgCl ball electrodes were placed on the left somatomotor cortex (1 mm anterior/1.5 mm lateral from bregma; 3 mm posterior/1.5 mm lateral from bregma) and the reference electrode was attached to the left foot for an ECoG recording. Group 1 were treated with saline. To induce sleep disturbance, 7.5 mg/kg caffeine was injected intraperitoneally at minute 15 of recordings to groups 2-8.” for “drill.”

[6] = test system: male mice; test: Serum melatonin by ELISA in male mice (Example 3); details: FIG. 3, saline control about 33 pg/ml, caffeine 7.5 mg/kg, composition given with caffeine
Protocol: (§3) Both OVX female mice and male mice were divided into three groups: group treated with saline, group treated with 7.5 mg/kg caffeine, and group treated with a combination of 7.5 mg/kg caffeine and the magnesium glycinate, L-theanine, GABA, SAMe and propyl gallate composition. […] Levels of serum melatonin were measured by ELISA kits.

[7] = test system: OVX female mice; test: Serum melatonin by ELISA in OVX female mice (Example 3); details: FIG. 3, saline control about 11 pg/ml, caffeine 7.5 mg/kg, composition given with caffeine
Protocol: as §3

[8] = test system: GABAB receptor 2; test: Western blot of brain GABAB receptor 2 in caffeine-treated mice (Example 1); details: FIG. 1C, male BALB/c mice brain, reduced from 100%, caffeine 7.5 mg/kg i.p., combos given together with caffeine, after two hours
Protocol: as §1, with “drill. Ag—AgCl ball electrodes were placed on the left somatomotor cortex (1 mm anterior/1.5 mm lateral from bregma; 3 mm posterior/1.5 mm lateral from bregma) and the reference electrode was attached to the left foot for an ECoG recording. Group 1 were treated with saline. To induce sleep disturbance, 7.5 mg/kg caffeine was injected intraperitoneally at minute 15 of recordings to groups 2-8.” for “drill.”

[9] = test system: GABAB receptor 1; test: Western blot of brain GABAB receptor 1 in caffeine-treated mice (Example 1); details: FIG. 1B, male BALB/c mice brain, reduced from 100%, caffeine 7.5 mg/kg i.p., combos given together with caffeine, after two hours
Protocol: as §1, with “drill. Ag—AgCl ball electrodes were placed on the left somatomotor cortex (1 mm anterior/1.5 mm lateral from bregma; 3 mm posterior/1.5 mm lateral from bregma) and the reference electrode was attached to the left foot for an ECoG recording. Group 1 were treated with saline. To induce sleep disturbance, 7.5 mg/kg caffeine was injected intraperitoneally at minute 15 of recordings to groups 2-8.” for “drill.”

[10] = test system: GABAA receptor 2; test: Western blot of brain GABAA receptor 2 in caffeine-treated mice (Example 1); details: FIG. 1A, male BALB/c mice brain, reduced from 100%, caffeine 7.5 mg/kg i.p., combos given together with caffeine, after two hours
Protocol: as §1, with “drill. Ag—AgCl ball electrodes were placed on the left somatomotor cortex (1 mm anterior/1.5 mm lateral from bregma; 3 mm posterior/1.5 mm lateral from bregma) and the reference electrode was attached to the left foot for an ECoG recording. Group 1 were treated with saline. To induce sleep disturbance, 7.5 mg/kg caffeine was injected intraperitoneally at minute 15 of recordings to groups 2-8.” for “drill.”

[11] = test system: GluN1; test: Western blot of brain GluN1 in caffeine-treated mice (Example 1); details: FIG. 1E, male BALB/c mice brain, reduced from 100%, caffeine 7.5 mg/kg i.p., combos given together with caffeine, after two hours
Protocol: as §1, with “drill. Ag—AgCl ball electrodes were placed on the left somatomotor cortex (1 mm anterior/1.5 mm lateral from bregma; 3 mm posterior/1.5 mm lateral from bregma) and the reference electrode was attached to the left foot for an ECoG recording. Group 1 were treated with saline. To induce sleep disturbance, 7.5 mg/kg caffeine was injected intraperitoneally at minute 15 of recordings to groups 2-8.” for “drill.”

Compound: CCCC(C)C1(CC)C(=O)NC(=O)NC1=O (stereo not shown) [pentobarbital]
- sleep duration ([1]; FIG. 1J): about 50 minutes
- sleep latency ([1]; FIG. 1K): about 2 minutes

Compound: Cn1c(=O)c2c(ncn2C)n(C)c1=O [caffeine]
- EEG amplitude ([2]; FIG. 1H, from about 100 mV, within 75 minutes): about 70 mV
- EEG frequency ([2]; FIG. 1I, from about 100 spikes, in 90 minutes): about 200 spikes
- percentage of 5-HT1A receptor [3]: about 20%
- percentage of GluN2A receptor [4]: about 20%
- percentage of GluA1 receptor [5]: about 26%
- melatonin level [6]: about 12 pg/ml
- melatonin level [7]: about 8 pg/ml
- percentage of GABAB receptor 2 [8]: about 28%
- percentage of GABAB receptor 1 [9]: about 18%
- percentage of GABAA receptor 2 [10]: about 25%
- percentage of GluN1 receptor [11]: about 35%
